Experimental data taken from patent publication US20230414657A1, “Novel compositions for neutralizing toxic effects of hydrogen peroxide in living cells or tissues” (Dzala LLC, priority 2020, published 2023).
Where two headings read alike, the source gives them in different places.

Experiments:
C. elegans [1] = type: in vivo
Description: Mitochondrial staining was performed as described previously^3,4. Briefly, L1 worms were grown on plate or in liquid culture for 2-3 days at 15° C. […] Next, the excess dye was washed off with M9 buffer and worms were incubated in 100 μl M9 for 30 min to eliminate the excess dye in the gut. Finally, worms were paralyzed with 0.5 mM Levamizol (Sigma-Aldrich), placed on slides covered with a thin layer of 2% agarose on top of which the coverslip (22×22 mm, Menzel-Glaser no. 1) was fixed using nail polish. We used a Zeiss LSM 700 inverted laser scanning confocal microscope and a Zeiss LCI Plan-Neofluar 63×/1.3 ImmCorr DIC M27 objective to image mitochondria (Zeiss, Germany). MitoTracker Red CMXRos was excited at 555 nm and the emission above 560 nm was acquired by the second PMT. Optical sections at 0.1×0.1×0.5 μm^3 x-y-z resolution were collected in […]. Final images were adjusted for intensity and merged in Fiji. No non-linear adjustments were made.

C. elegans [2] = test: Oxygen consumption rate (OCR), Seahorse XFe96; type: in vivo
Description: Oxygen consumption of worms was measured with a Seahorse XFe96 system (Seahorse Bioscience, North Billerica, MA), as previously described^4. L3 larvae of the different strains were grown on plates or in liquid culture and supplemented for 2-4 days as described for each experiment. After removing bacteria and debris, approximately 100 worms were pipetted into each well of a 96-well Seahorse XF^e assay plate and OCR was measured until it stabilized. Then, 3 subsequent measurements were made at 6.5-min intervals. Finally, the exact number of worms in each well was counted and used for normalization. A small number of abnormal readings were also filtered out at this stage. On average, 7-8 wells (technical replicates) were used for each condition. Normalized OCR values were averaged for the last 3 measurements for each strain and condition. Four biological replicates were analyzed for each condition.

C. elegans [3] = test: Growth rate / worm size; type: in vivo; details: for Growth: 100 mM H2O2 plus supplement (10 mM GA, 100 μM glycine or 500 μM L-serine)
Description: (§1) Synchronized L1 worms were incubated at 15° C. on plates or in liquid culture and exposed to different conditions as indicated. Single worms were selected randomly from the plates or aliquots were taken from the liquid cultures and added to NGM plates for immediate visualization. 25 worms per treatment were measured at 24-48 hr intervals and all growth curves were done four times.

C. elegans [4] = test: Quantification of glutathione (GSH/GSSG-Glo); type: in vivo; details: for GSH-to-GSSG ratio: plus supplement; for GSH/GSSG ratio: H2O2-treated worms plus 100 μM glycine or 500 μM L-serine
Description: Sample preparation was performed as described previously with some modifications^6. From each condition 10,000 synchronized animals were harvested and washed 3 times with sterile water. […] To thoroughly lyse the worms, 5 cycles of freezing and thawing were performed in a water bath at 37° C., followed by a 1-min sonication. The samples were then centrifuged and the supernatant tested for protein estimation and GSH quantification. Total GSH, GSSG, and GSH/GSSG ratios were quantified using the GSH/GSSG-Glo assay kit (Promega) following the instructions of the manufacturer. Briefly, each sample was tested in triplicate in 96-well culture plates with total glutathione or GSSG lysis reagent, for total glutathione or GSSG measurement, respectively. The GSH probe, luciferin-NT, was converted to luciferin, which is coupled to a firefly luciferase. The plates were then read in an […] plate reader (Perkin Elmer, United States). The GSSG value was subtracted from the total glutathione to calculate GSH levels and GSH/GSSG ratio. Four biological replicates were analyzed for each condition.

C. elegans [5] = test: NADPH and NADP+ quantification by LC-MS; type: in vivo; details: 100 mM H2O2 plus 10 mM glycolate, 100 μM glycine or 500 μM L-serine, 3 days
Description: To measure NADP^+ and NADPH from C. elegans, 10000-15000 L1 worms were exposed to each condition in duplicates for 3 days and then washed four times with H2O. […] 25 µM solutions of each nucleotide were treated in parallel as standards. Homogenization for 15 min at 4° C. and 300 g was carried out in a TissueLyser II (Qiagen) after adding ⅓ volume of 0.5 mm zirconium beads. The resulting mixture was centrifuged at 13,000 g and the supernatant transferred to a new tube.
LC-MS/MS analysis of the samples was performed on a high-performance liquid chromatography (HPLC) system (1200 Agilent) coupled online to G2-S QTOF (Waters). For normal phase chromatography Bridge Amide 3.5 ml (2.1×100 mm) column from Waters was used. The mobile phase composed of eluent A and eluent B (40% acetonitrile, 0.1 mM ammonium acetate and 0.01% NH40H) was applied with the following gradient program: Eluent B, from 0% to 100% within 18 min; 100% from 18 min to 21 min; 0% from 21 min to 26 min. The flow rate was set at 0.3 ml/min. The spray voltage was set at 3.0 kV and the source temperature was set at 120° C. Nitrogen was used as both cone gas (50 L/h) and desolvation gas (800 L/h), and argon as the collision gas. MS^E mode was used with Bridge Amide 3.5 µl (2.1×100 mm) column in ESI negative ionization polarity for the detection of the nucleosides. Mass chromatograms and mass spectral data were acquired and processed by MassLynx software (Waters). Three and four biological replicates were analyzed for each condition of mel-32 RNAi and EV, respectively.

C. elegans [6] = test: Peroxide treatment of mutant, RNAi or unstressed worms: MMP, OCR and growth read together; type: in vivo; details: for Restoration of MMP, OCR or growth rate: H2O2, RNAi against mel-32 or gcst-1; for MMP, OCR, growth rate: H2O2, worms fed with empty vector RNAi bacteria; for Response to glycine and L-serine: ghpr-1 and ghpr-1, ldh-1, gox-1 mutants fed with mel-32 RNAi bacteria; for Deleterious effects of peroxide (MMP, respiration, size): ghpr-1 single and ghpr-1, gox-1, ldh-1 triple mutants, H2O2 plus glycine or L-serine
From the text: C. elegans wild-type (N2) strain was received from Caenorhabditis Genetics Center, USA. Mutant strains were generated using the following primers. Idh-1: […] and […]; C31C9.2 (ghpr-1): […] and […]and F41E6.5 (gox-1): […]and[…]. […] Progeny of the rescued strains were genotyped for homozygous deletion with PCR primers for three generations. All mutants were outcrossed at least twice with the wild type to eliminate background mutations. Double and triple mutants were obtained by crossing single or double mutants and selecting the homozygous progeny by PCR.
For RNAi experiments in liquid, E. coli HT115 containing L4440 empty vector or the indicated cDNA fragment in L4440 was inoculated in 100 ml of LB containing 100 μg/ml ampicillin and incubated overnight at 37° C. in a shaking incubator at 250 rpm. To induce the production of dsRNA, a final concentration 0.8 mM IPTG was added to the collected bacterial pellet diluted 100-fold and incubated overnight at 25° C. in a shaking incubator at 250 rpm. Bacteria were then pelleted by centrifugation at 4000 rpm for 5 mins and resuspended in 200 μl S-medium containing 100 μg/ml ampicillin and 0.8 mM IPTG.
A population of synchronized L1 larvae was added to 30-ml glass tubes containing 2.5 ml of S-complete medium (liquid culture)^2 and NA22 or induced RNAi bacteria at an OD600 of 1.9. […] Worms were incubated at 15° C. and 150 rpm in a shaking incubator for 2-6 days, refreshing the medium every 2 days.
Mitochondrial staining was performed as described previously^3,4. Briefly, L1 worms were grown on plate or in liquid culture for 2-3 days at 15° C. Subsequently, they were pelleted in a 15-ml tube, rinsed twice with H2O and resuspended in 100 μl of M9. 5 μM MitoTracker Red CMXRos (Thermo Fisher Scientific, Germany) in DMSO was added to the worm suspension and incubated in this solution for 1.5 hr at room temperature in the dark. Next, the excess dye was washed off with M9 buffer and worms were incubated in 100 μl M9 for 30 min to eliminate the excess dye in the gut. Finally, worms were paralyzed with 0.5 mM Levamizol (Sigma-Aldrich), placed on slides covered with a thin layer of 2% agarose on top of which the coverslip (22×22 mm, Menzel-Glaser no. 1) was fixed using nail polish. We used a Zeiss LSM 700 inverted laser scanning confocal microscope and a Zeiss LCI Plan-Neofluar 63×/1.3 ImmCorr DIC M27 objective to image mitochondria (Zeiss, Germany). MitoTracker Red CMXRos was excited at 555 nm and the emission above 560 nm was acquired by the second PMT. Optical sections at 0.1×0.1×0.5 μm^3 x-y-z resolution were collected in a 4D hyperstack. Final images were adjusted for intensity and merged in Fiji. No non-linear adjustments were made.
as §1, with “times. Images were analyzed using FIJI (Image J) software, with length measurements derived by the sum-total of a number of segmented lines of known length, down the center of the worm as described previously^5.” for “times.”
Oxygen consumption of worms was measured with a Seahorse XFe96 system (Seahorse Bioscience, North Billerica, MA), as previously described^4. L3 larvae of the different strains were grown on plates or in liquid culture and supplemented for 2-4 days as described for each experiment. After removing bacteria and debris, approximately 100 worms were pipetted into each well of a 96-well Seahorse XF^e assay plate and OCR was measured until it stabilized. Then, 3 subsequent measurements were made at 6.5-min intervals. Finally, the exact number of worms in each well was counted and used for normalization.

C. elegans [7] = test: H2O2 accumulation in worms (Amplex Red); type: in vivo; details: peroxide + GA with glutathione synthesis blocked by BSO
Description: Hydrogen peroxide was measured using the Amplex Red hydrogen peroxide/peroxidase assay kit (Molecular Probes, Eugene, OR), adapting the protocol to C. elegans. In the presence of hydrogen peroxide, Amplex Red is oxidized by horseradish peroxidase to form a red-fluorescent oxidation product whose fluorescence intensity can be measured.
To measure ROS production from C. elegans, 5000-7000 L1 worms were exposed to each condition for 2-3 days as indicated and then washed four times in 1 ml of the reaction buffer supplied with the kit. Volumes were adjusted to 700-1200 nematodes/50 μl and 50 μl was pipetted into a 96-well plate. A total of 50 μl of the Amplex Red reaction buffer was then added to the wells, and after 1 hr fluorescence was measured with a fluorescence microplate reader using excitation at 530±12.5 nm and fluorescence detection at 590±17.5 nm. Background fluorescence, determined for a no-H2O2 control reaction, was subtracted from each value. The significance of differences between conditions was determined by an unpaired fest. GraphPadPrism 8.0 was used for these calculations. Three biological replicates were carried out for each condition.

C. elegans [8] = details: in vivo, 3 days
Description: To quantify the uptake of glycolate, glycine and L-serine approximately 10000 synchronized L1 were incubated in liquid cultures as described above and grown for 3 days in the presence of […] of [1-^14C]-glycolate, [1-^14C]-glycine or L-[1-^14C]-serine. At this stage, worms were snap-frozen and stored at […]. Animals were lysed by freezing/thawing and extracted by using the Bligh and Dyer method^7. After phase separation, organic and aqueous fractions were recovered from the lower and upper phases, respectively. After drying and concentration, radioactivity was quantified using a scintillation counter and normalized for total number of worms.

[9] = 100 mM H2O2 plus supplement (10 mM GA, 100 μM glycine or 500 μM L-serine)
[10] = H2O2-treated animals defective in mel-32 or gcst-1 (RNAi)
[11] = H2O2-treated worms fed with empty vector

| Structure (SMILES) | Mitochondrial membrane potential (MMP) (C. elegans [1]; [9]) | Respiration rate (OCR) (C. elegans [2]; [9]) | Growth (C. elegans [3]) | GSH-to-GSSG ratio (C. elegans [4]; [10]) | GSH-to-GSSG ratio (C. elegans [4]; [11]) | GSH/GSSG ratio (C. elegans [4]) | Ratio of NADPH to NADP+ (C. elegans [5]) | Restoration of MMP, OCR or growth rate (C. elegans [6]) | MMP, OCR, growth rate (C. elegans [6]) | Response to glycine and L-serine (C. elegans [6]) | Deleterious effects of peroxide (MMP, respiration, size) (C. elegans [6]) | Mitochondrial membrane potential (MMP) (C. elegans [1]; H2O2 + GA + BSO (0.5 mM)) | Respiration rate (OCR) (C. elegans [2]; H2O2 + GA + BSO (0.5 mM)) | Growth rate (C. elegans [3]; H2O2 + GA + BSO (0.5 mM)) | Biosynthesis of glutathione (C. elegans [4]; 0.5 mM BSO, FIG. 2) | GSH/GSSG per worm (C. elegans [4]; H2O2 + GA + BSO, control 107.5) | Total glutathione (C. elegans [4]; H2O2 + GA + inhibitor BSO) | Accumulation of H2O2 (C. elegans [7]) | Radioactivity in labelled animals (uptake) relative to [14C]GA (C. elegans [8]) [times higher] |
| --- | --- | --- | --- | --- | --- | --- | --- | --- | --- | --- | --- | --- | --- | --- | --- | --- | --- | --- | --- |
| NCC(=O)O [glycine] | able to restore | able to restore | able to restore | strongly reduced | maintained close to control levels | able to restore | fully rescued | none of these three compounds were able to restore | restored parameters | loss of response | overcome the deleterious effects of peroxide |  |  |  |  |  |  |  |  |
| CCCCS(=N)(=O)CCC(N)C(=O)O [BSO, L-buthioninesulfoximine, reference compound] |  |  |  |  |  |  |  |  |  |  |  | prevented the GA-mediated improvement | prevented the GA-mediated improvement | prevented the GA-mediated improvement | inhibited | 36 | 65 % of the control | unchanged |  |
| N[C@@H](CO)C(=O)O [L-serine] | able to restore | able to restore | able to restore | strongly reduced | maintained close to control levels | able to restore | much weaker, but still significant, increase | none of these three compounds were able to restore | restored parameters | loss of response | overcome the deleterious effects of peroxide |  |  |  |  |  |  |  | 3 |
